Source: ChEMBL document CHEMBL3576760, “Modification of amphipathic non-opioid dynorphin A analogues for rat brain bradykinin receptors” (Bioorg Med Chem Lett, 2015)
Activity calls are given as the source filed them. No cut-off for these calls is given here. Non-standard residues stand in square brackets, D forms with d. Residues, ends and D or L forms follow the SMILES beside them. ξ: configuration not given here. Phe(4-NH2) = Nc1ccc(C[C@H](N)C(=O)O)cc1; dNle = CCCC[C@@H](N)C(=O)O; ξNle = CCCCC(N)C(=O)O

What was measured:
[1] = (§1) Displacement of [3H]DALKD from bradykinin receptor in rat brain membrane at pH 6.8 by competition assay; assay type: cell membranes
[2] = Retention time of the compound by HPLC analysis; assay type: physicochemical
[3] = Displacement of [3H]DALKD from bradykinin receptor in rat brain membrane at pH 7.4 by competition assay; assay type: cell membranes
Rattus norvegicus = species on record: Rattus norvegicus; assay: as §1; assay type: cell membranes

Row | Compound | pIC50 [1] | IC50 ([1]; read-out: IC50) [nM] | Retention_time [2] [min] | IC50 [3] [nM] | pIC50 [3] | IC50 [1] | pIC50 (Rattus norvegicus)
1 | CC(C)C[C@H](NC(=O)[C@H](CCCCN)NC(=O)[C@@H]1CCCN1C(=O)[C@@H](N)CCCNC(=N)N)C(=O)N[C@@H](CCCCN)C(=O)O | 7.24 | 58 | 6 |  |  |  | 
2 | CC[C@H](C)[C@H](NC(=O)[C@H](CCCNC(=N)N)NC(=O)[C@@H](NC(=O)[C@@H](N)Cc1ccccc1)[C@@H](C)CC)C(=O)N[C@@H](CCCNC(=N)N)C(=O)N1CCC[C@H]1C(=O)N[C@@H](CCCNC(=N)N)C(=O)O (H-FIRIRPR-OH) | 6.96 | 110 | 9.9 |  |  |  | 
3 | CC(C)C[C@H](NC(=O)[C@H](CCCNC(=N)N)NC(=O)[C@H](CC(C)C)NC(=O)[C@@H](N)Cc1ccccc1)C(=O)N[C@@H](CCCNC(=N)N)C(=O)N1CCC[C@H]1C(=O)N[C@@H](CCCNC(=N)N)C(=O)O (H-FLRLRPR-OH) | 7 | 100 | 10.8 |  |  |  | 
4 | CC[C@H](C)[C@H](NC(=O)[C@H](CCCNC(=N)N)NC(=O)[C@H](CCCNC(=N)N)NC(=O)[C@H](CC(C)C)NC(=O)[C@@H](N)Cc1ccccc1)C(=O)O (H-FLRRI-OH) |  |  | 9.2 | 4800 | 5.32 |  | 
5 | CC[C@H](C)[C@H](NC(=O)[C@H](CCCNC(=N)N)NC(=O)[C@H](CCCNC(=N)N)NC(=O)[C@H](CC(C)C)NC(=O)[C@@H](N)Cc1ccccc1)C(=O)N[C@@H](CCCNC(=N)N)C(=O)N1CCC[C@H]1C(=O)N[C@@H](CCCCN)C(=O)N[C@@H](CC(C)C)C(=O)O (H-FLRRIRPKL-OH) | 5.28 | 5200 | 11.4 |  |  |  | 
6 | CC[C@H](C)[C@H](NC(=O)[C@H](CCCNC(=N)N)NC(=O)[C@@H](N)Cc1ccccc1)C(=O)N[C@@H](CCCNC(=N)N)C(=O)N1CCC[C@H]1C(=O)N[C@@H](CCCCN)C(=O)N[C@@H](CC(C)C)C(=O)N[C@@H](CCCCN)C(=O)O (H-FRIRPKLK-OH) | 7.08 | 83 | 10.2 |  |  |  | 
7 | CCCCC(NC(=O)[C@H](CCCNC(=N)N)NC(=O)C(CCCC)NC(=O)[C@@H](N)Cc1ccccc1)C(=O)N[C@@H](CCCNC(=N)N)C(=O)N1CCC[C@H]1C(=O)N[C@@H](CCCNC(=N)N)C(=O)O (some centres not stated) (H-F[ξNle]R[ξNle]RPR-OH) | 7.06 | 87 |  |  |  |  | 
8 | CC(C)C[C@H](NC(=O)[C@H](Cc1ccccc1)NC(=O)CN)C(=O)N[C@@H](CCCNC(=N)N)C(=O)O (H-GFLR-OH) |  |  | 8.7 | 950 | 6.02 |  | 
9 | CC[C@H](C)[C@H](NC(=O)[C@H](CCCNC(=N)N)NC(=O)[C@H](CCCNC(=N)N)NC(=O)[C@H](CC(C)C)NC(=O)[C@H](Cc1ccccc1)NC(=O)CN)C(=O)O (H-GFLRRI-OH) |  |  | 10.1 | 2300 | 5.63 |  | 
10 | CC[C@H](C)[C@H](NC(=O)[C@H](CCCNC(=N)N)NC(=O)[C@H](CC(C)C)NC(=O)[C@H](Cc1ccccc1)NC(=O)CNC(=O)CN)C(=O)N[C@@H](CCCNC(=N)N)C(=O)N1CCC[C@H]1C(=O)N[C@@H](CCCCN)C(=O)N[C@@H](CC(C)C)C(=O)N[C@@H](CCCCN)C(=O)O (H-GGFLRIRPKLK-OH) | 7.39 | 41 |  |  |  |  | 
11 | CC[C@H](C)[C@H](NC(=O)[C@H](CCCNC(=N)N)NC(=O)[C@@H]1CCCN1C(=O)[C@H](CCCCN)NC(=O)[C@H](CC(C)C)NC(=O)[C@@H](N)CCCCN)C(=O)N[C@@H](CCCNC(=N)N)C(=O)N[C@@H](CC(C)C)C(=O)N[C@@H](Cc1ccccc1)C(=O)NCC(=O)NCC(=O)O (H-KLKPRIRLFGG-OH) | 6.82 | 150 | 12.1 |  |  |  | 
12 | CC[C@H](C)[C@H](NC(=O)[C@H](CCCNC(=N)N)NC(=O)[C@@H]1CCCN1C(=O)[C@H](CCCCN)NC(=O)[C@H](CC(C)C)NC(=O)[C@@H](N)CCCCN)C(=O)N[C@@H](CCCNC(=N)N)C(=O)N[C@@H](CCCNC(=N)N)C(=O)N[C@@H](CC(C)C)C(=O)N[C@@H](Cc1ccccc1)C(=O)NCC(=O)NCC(=O)O (H-KLKPRIRRLFGG-OH) | 7.11 | 78 | 11.6 |  |  |  | 
13 | CC[C@H](C)[C@H](NC(=O)[C@H](CCCNC(=N)N)NC(=O)[C@@H]1CCCN1C(=O)[C@@H](N)CCCCN)C(=O)N[C@@H](CCCNC(=N)N)C(=O)N[C@@H](CC(C)C)C(=O)O (H-KPRIRL-OH) | 6.03 | 930 | 9.9 |  |  |  | 
14 | CC[C@H](C)[C@H](NC(=O)[C@H](CCCNC(=N)N)NC(=O)[C@@H]1CCCN1C(=O)[C@@H](N)CCCCN)C(=O)N[C@@H](CCCNC(=N)N)C(=O)N[C@@H](CC(C)C)C(=O)N[C@@H](Cc1ccccc1)C(=O)O (H-KPRIRLF-OH) | 7.3 | 50 | 14.5 |  |  |  | 
15 | CC[C@H](C)[C@H](NC(=O)[C@H](CCCNC(=N)N)NC(=O)[C@@H]1CCCN1C(=O)[C@H](CCCCN)NC(=O)[C@H](CC(C)C)NC(=O)[C@@H](N)CC(C)C)C(=O)N[C@@H](CCCNC(=N)N)C(=O)N[C@@H](CCCNC(=N)N)C(=O)N[C@@H](CC(C)C)C(=O)N[C@@H](Cc1ccccc1)C(=O)NCC(=O)NCC(=O)O (H-LLKPRIRRLFGG-OH) | 7.03 | 93 | 12.6 |  |  |  | 

Other lines, results leading:

Row | pIC50 [1] | IC50 ([1]; read-out: IC50) [nM] | Retention_time [2] [min] | IC50 [3] [nM] | pIC50 [3] | IC50 [1] | pIC50 (Rattus norvegicus) | Compound
16 |  |  | 10.8 | 350 | 6.46 |  |  | CC(C)C[C@H](NC(=O)[C@H](CCCCN)NC(=O)[C@@H](N)Cc1ccccc1)C(=O)N[C@@H](CCCCN)C(=O)O (H-FKLK-OH)
17 | 7.31 | 49 | 6.8 |  |  |  |  | CC[C@H](C)[C@H](N)C(=O)N[C@@H](CCCNC(=N)N)C(=O)N1CCC[C@H]1C(=O)N[C@@H](CCCCN)C(=O)N[C@@H](CC(C)C)C(=O)N[C@@H](CCCCN)C(=O)O (H-IRPKLK-OH)
18 | 5.2 | 6300 | 9.9 |  |  |  |  | CC[C@H](C)[C@H](NC(=O)[C@H](CCCNC(=N)N)NC(=O)[C@@H]1CCCN1C(=O)[C@H](CCCCN)NC(=O)[C@H](CC(C)C)NC(=O)[C@@H](N)CCCCN)C(=O)O (H-KLKPRI-OH)
19 | 6.68 | 210 |  |  |  |  |  | CC(C)C[C@H](NC(=O)[C@H](CCCCN)NC(=O)[C@@H]1CCCN1)C(=O)N[C@@H](CCCCN)C(=O)O (H-PKLK-OH)
20 |  |  | 7.5 | 71 | 7.15 |  |  | CCCCC(NC(=O)[C@H](CCCCN)NC(=O)[C@@H]1CCCN1)C(=O)N[C@@H](CCCCN)C(=O)O (some centres not stated) (H-PK[ξNle]K-OH)
21 | 7.19 | 65 | 8.3 |  |  |  |  | CC[C@H](C)[C@H](NC(=O)[C@@H](N)CCCNC(=N)N)C(=O)N[C@@H](CCCNC(=N)N)C(=O)N1CCC[C@H]1C(=O)N[C@@H](CCCCN)C(=O)N[C@@H](CC(C)C)C(=O)N[C@@H](CCCCN)C(=O)O (H-RIRPKLK-OH)
22 |  |  | 7.2 | 450 | 6.35 |  |  | CC(C)C[C@H](NC(=O)[C@H](CCCCN)NC(=O)[C@@H](N)Cc1ccc(N)cc1)C(=O)N[C@@H](CCCCN)C(=O)O (H-[Phe(4-NH2)]KLK-OH)
23 |  |  | 11.1 |  |  | Not Active | inactive | CCCC[C@@H](NC(=O)[C@H](N)Cc1ccccc1)C(=O)N[C@H](CCCNC(=N)N)C(=O)N[C@H](CCCC)C(=O)N[C@H](CCCNC(=N)N)C(=O)N1CCC[C@@H]1C(=O)N[C@H](CCCCN)C(=O)O (H-[dF][dNle][dR][dNle][dR][dP][dK]-OH)
24 | 6.34 | 460 | 7.9 |  |  |  |  | CCCCC(N)C(=O)N[C@@H](CCCCN)C(=O)N[C@H](C(=O)N[C@@H](CCCCN)C(=O)N1CCC[C@H]1C(=O)N[C@@H](CCCCN)C(=O)O)[C@@H](C)CC (some centres not stated) (H-[ξNle]KIKPK-OH)
25 | 7.11 | 78 |  |  |  |  |  | CCCCC(N)C(=O)N[C@@H](CCCCN)C(=O)N1CCC[C@H]1C(=O)N[C@@H](CCCCN)C(=O)NC(CCCC)C(=O)N[C@@H](CCCCN)C(=O)O (some centres not stated) (H-[ξNle]KPK[ξNle]K-OH)
26 |  |  | 9.9 | 110 | 6.94 |  |  | CCCCC(N)C(=O)N[C@@H](CCCCN)C(=O)NC(CCCC)C(=O)N[C@@H](CCCCN)C(=O)O (some centres not stated) (H-[ξNle]K[ξNle]K-OH)
27 | 7.08 | 83 | 8.2 |  |  |  |  | CCCCC(N)C(=O)N[C@@H](CCCNC(=N)N)C(=O)N1CCC[C@H]1C(=O)N[C@@H](CCCNC(=N)N)C(=O)NC(CCCC)C(=O)N[C@@H](CCCCN)C(=O)O (some centres not stated) (H-[ξNle]RPR[ξNle]K-OH)
